Assay results reported in ChEMBL document CHEMBL1201862, “PubChem BioAssay data set” (2004).
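96-well plates; 48 h exposure; 5 concentrations. Endpoints by linear interpolation between flanking doses. Not reached: highest tested concentration assigned. GI50 is the concentration that inhibits growth by half.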 Active and inactive are the calls of the source. Cut-off read from the data, not from the text of the source: active = GI50 up to about 1.1 µM and inactive = higher.

What was measured:
Assay in all cases: inhibition of tumour cell growth, NCI panel, 48 h
[1] = tested on: A498
[2] = tested on: SR
[3] = tested on: HOP-92
[4] = tested on: SNB-75
[5] = tested on: COLO 205
[6] = tested on: A549
[7] = tested on: K562
[8] = tested on: MDA-N
[9] = tested on: DU-145
[10] = tested on: MOLT-4
[11] = tested on: Hs-578T
[12] = tested on: NCI-H522
[13] = tested on: M14
[14] = tested on: HT-29
[15] = tested on: HOP-62
[16] = tested on: HCT-116
[17] = tested on: MDA-MB-231
[18] = tested on: UACC-62
[19] = tested on: EKVX
[20] = tested on: IGROV-1
[21] = tested on: PC-3
[22] = tested on: MDA-MB-435
[23] = tested on: NCI-H23
[24] = tested on: SN12C
[25] = tested on: UACC-257
[26] = tested on: MCF7
[27] = tested on: SF-539
[28] = tested on: SF-268
[29] = tested on: UO-31
[30] = tested on: SF-295
[31] = tested on: T47D
[32] = tested on: OVCAR-8
[33] = tested on: RPMI-8226
[34] = tested on: Malme-3M
[35] = tested on: SNB-19
[36] = tested on: NCI-H226
[37] = tested on: BT-549
[38] = tested on: SK-MEL-28
[39] = tested on: CCRF-CEM
[40] = tested on: OVCAR-3
[41] = tested on: SK-MEL-2
[42] = tested on: SK-OV-3
[43] = tested on: RXF 393
[44] = tested on: NCI-H460
[45] = tested on: HCC 2998
[46] = tested on: TK-10
[47] = tested on: OVCAR-4
[48] = tested on: CAKI-1
[49] = tested on: KM12
[50] = tested on: NCI/ADR-RES
[51] = tested on: ACHN
[52] = tested on: SW-620
[53] = tested on: U-251
[54] = tested on: LOX IMVI
[55] = tested on: HL-60
[56] = tested on: 786-0
[57] = tested on: SK-MEL-5
[58] = tested on: OVCAR-5
[59] = tested on: HCT-15

C=C1CCC(CC[C@@H]2CC[C@]3(OC2)O[C@@]2(O)CC[C@]3(C)OC2(C)C)C(C)(C)[C@H]1C/C=C1/C(=O)OC[C@@H]1O (some centres undefined) was tested, and the GI50 [1] was 5930 nM (inactive), the GI50 [2] was 1540 nM (inactive) and the GI50 [3] was 2020 nM (inactive). For the same compound, the GI50 [4] was 7290 nM (inactive), the GI50 [5] was 5430 nM (inactive) and the GI50 [6] was 3550 nM (inactive). The GI50 [7] was 141 nM (active), the GI50 [8] was 1490 nM (inactive) and the GI50 [9] was 4830 nM (inactive). The GI50 [10] was 1590 nM (inactive), the GI50 [11] was 4200 nM (inactive) and the GI50 [12] was 1290 nM (inactive). The GI50 [13] was 2480 nM (inactive), the GI50 [14] was 1630 nM (inactive) and the GI50 [15] was 6100 nM (inactive). For the same compound, the GI50 [16] was 710 nM (active), the GI50 [17] was 1690 nM (inactive) and the GI50 [18] was 1340 nM (inactive). For the same compound, the GI50 [19] was 2960 nM (inactive), the GI50 [20] was 2910 nM (inactive) and the GI50 [21] was 2170 nM (inactive). For the same compound, the GI50 [22] was 1860 nM (inactive), the GI50 [23] was 445 nM (active) and the GI50 [24] was 2360 nM (inactive). For the same compound, the GI50 [25] was 363 nM (active), the GI50 [26] was 1110 nM (active) and the GI50 [27] was 3170 nM (inactive). The GI50 [28] was 3010 nM (inactive), the GI50 [29] was 4910 nM (inactive) and the GI50 [30] was 348 nM (active). The GI50 [31] was 413 nM (active), the GI50 [32] was 1220 nM (inactive) and the GI50 [33] was 1620 nM (inactive). For the same compound, the GI50 [34] was 2390 nM (inactive), the GI50 [35] was 2890 nM (inactive) and the GI50 [36] was 2290 nM (inactive). The GI50 [37] was 1900 nM (inactive), the GI50 [38] was 1590 nM (inactive) and the GI50 [39] was 1060 nM (active). The GI50 [40] was 2570 nM (inactive), the GI50 [41] was 524 nM (active) and the GI50 [42] was 4850 nM (inactive). The GI50 [43] was 2190 nM (inactive), the GI50 [44] was 3040 nM (inactive) and the GI50 [45] was 4160 nM (inactive). The GI50 [46] was 6120 nM (inactive), the GI50 [47] was 263 nM (active) and the GI50 [48] was 5000 nM (inactive). The GI50 [49] was 2340 nM (inactive), the GI50 [50] was 906 nM (active) and the GI50 [51] was 2650 nM (inactive). The GI50 [52] was 3330 nM (inactive), the GI50 [53] was 2000 nM (inactive) and the GI50 [54] was 240 nM (active). For the same compound, the GI50 [55] was 685 nM (active), the GI50 [56] was 2960 nM (inactive) and the GI50 [57] was 98.6 nM (active). The GI50 [58] was 2500 nM (inactive) and the GI50 [59] was 1220 nM.
